Experimental data as given in patent publication US20230131899A1, “INHIBITORS OF MICROBIALLY INDUCED AMYLOID” (Axial Therapeutics, Inc., priority 2020, published 2023).
Like-named read-outs stand apart in the source and are kept apart here.

Molecular target: T1, human α-synuclein (Homo sapiens, UniProt P37840)
T1 construct: the full-length gene for untagged human α-synuclein was inserted; made in house; host or cells: E. coli BL21(DE3), plasmid derived from pT7 or pET11a
Experiment: Cell-free Thioflavin T assay of α-synuclein aggregation (αSyn ThT Assay)
Assay type: biochemical
Settings: αSyn 50 μM
Outline: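 Inhibition is reported as 100% minus background-corrected ThT signal relative to vehicle wells, taken at 36, 47, 48 or 72 h or the last read. Reactions held 50 μM recombinant α-synuclein, 20-100 μM compound, 20-40 μM ThT and 1% DMSO. Incubation was at 37° C., shaken, with a glass bead.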

[1] = class symbol, compounds 100 μM, read-out: αSyn ThT Assay % inhibition, activity range
[2] = mean percent inhibition relative to DMSO control, compounds 100 μM, read-out: αSyn ThT Assay % inhibition
[3] = mean % inhibition of αSyn aggregation relative to DMSO control, compounds at 100 μM, read-out: αSyn ThT Assay % Inhibition
[4] = compounds at 100 μM, class symbol, read-out: αSyn ThT Assay % Inhibition (activity range)

`CCCNC(=O)c1c(Cc2cccc3ccccc23)c(-c2cccc(C(F)(F)F)c2)c2n(c1=O)C(C(=O)O)CN(C)S2(=O)=O` (centres unmarked) [Compound 154, 2-methyl-8-(naphthalen-1-ylmethyl)-6-oxo-7-(propylcarbamoyl)-9-(3-(trifluoromethyl)phenyl)-3,4-dihydro-2H,6H-pyrido[1,2-e][1,2,5]thiadiazine-4-carboxylic acid 1,1-dioxide] gave an inhibition at 100 µM [1] of over 60% and an inhibition at 100 µM [2] of 89%.

Compound `O=C(O)C1CN(Cc2ccncc2)c2c(-c3cccc(C(F)(F)F)c3)c(Cc3cccc4ccccc34)c(Cl)c(=O)n21` (centres unmarked) [Compound 174, 6-chloro-7-(naphthalen-1-ylmethyl)-5-oxo-1-(pyridin-4-ylmethyl)-8-(3-(trifluoromethyl)phenyl)-1,2,3,5-tetrahydroimidazo[1,2-a]pyridine-3-carboxylic acid] has an inhibition at 100 µM [1] of 11 to 30% and an inhibition at 100 µM [2] of 23%.

`O=C(O)C1CN(CC2CCOCC2)c2c(-c3cccc(C(F)(F)F)c3)c(Cc3cccc4ccccc34)c(Cl)c(=O)n21` (centres unmarked) [Compound 182, 6-chloro-7-(naphthalen-1-ylmethyl)-5-oxo-1-((tetrahydro-2H-pyran-4-yl)methyl)-8-(3-(trifluoromethyl)phenyl)-1,2,3,5-tetrahydroimidazo[1,2-a]pyridine-3-carboxylic acid] showed an inhibition at 100 µM [1] of 31 to 60% and an inhibition at 100 µM [2] of 33%.

`Nc1c(Cc2ccc(N)c3ccccc23)c(-c2cccc(C(F)(F)F)c2)c2n(c1=O)C(C(=O)O)CNS2(=O)=O` (centres unmarked) [Compound 041] was tested, and the inhibition at 100 µM [3] was 25% and the inhibition at 100 µM [4] was 11 to 30%.

`O=C(O)C1CN(CCCO)c2c(-c3cccc(C(F)(F)F)c3)c(Cc3cccc4ccccc34)c(Cl)c(=O)n21` (centres unmarked) [Compound 197, 6-chloro-1-(3-hydroxypropyl)-7-(naphthalen-1-ylmethyl)-5-oxo-8-(3-(trifluoromethyl)phenyl)-1,2,3,5-tetrahydroimidazo[1,2-a]pyridine-3-carboxylic acid] showed an inhibition at 100 µM [1] of 31 to 60% and an inhibition at 100 µM [2] of 39%.

`CC1(C(=O)O)CNS(=O)(=O)c2c(-c3cccc(C(F)(F)F)c3)c(Cc3cccc4ccccc34)cc(=O)n21` (centres unmarked) [Compound 042, 4-methyl-8-(naphthalen-1-ylmethyl)-6-oxo-9-(3-(trifluoromethyl)phenyl)-3,4-dihydro-2H,6H-pyrido[1,2-e][1,2,5]thiadiazine-4-carboxylic acid 1,1-dioxide] was tested, and the inhibition at 100 µM [3] was 84% and the inhibition at 100 µM [4] was over 60%.

In the case of `NC(=O)c1c(Cc2cccc3ccccc23)c(-c2cccc(C(F)(F)F)c2)c2n(c1=O)C(C(=O)O)CN(CCCO)S2(=O)=O` (centres unmarked) [Compound 184, 7-carbamoyl-2-(3-hydroxypropyl)-8-(naphthalen-1-ylmethyl)-6-oxo-9-(3-(trifluoromethyl)phenyl)-3,4-dihydro-2H,6H-pyrido[1,2-e][1,2,5]thiadiazine-4-carboxylic acid 1,1-dioxide], the inhibition at 100 µM [1] is reported as over 60% and the inhibition at 100 µM [2] is reported as 75%.

`O=C(O)C1CN(Cc2ccccc2)c2c(-c3cccc(C(F)(F)F)c3)c(C(F)(F)c3cccc4ccccc34)c(Br)c(=O)n21` (centres unmarked) [Compound 155, 1-benzyl-6-bromo-7-(difluoro(naphthalen-1-yl)methyl)-5-oxo-8-(3-(trifluoromethyl)phenyl)-1,2,3,5-tetrahydroimidazo[1,2-a]pyridine-3-carboxylic acid] gave an inhibition at 100 µM [1] of 31 to 60% and an inhibition at 100 µM [2] of 60%.

`O=C(O)C1CN(CC2CCCC2)c2c(-c3cccc(C(F)(F)F)c3)c(Cc3cccc4ccccc34)c(Cl)c(=O)n21` (centres unmarked) [Compound 167, 6-chloro-1-(cyclopentylmethyl)-7-(naphthalen-1-ylmethyl)-5-oxo-8-(3-(trifluoromethyl)phenyl)-1,2,3,5-tetrahydroimidazo[1,2-a]pyridine-3-carboxylic acid] was tested, and the inhibition at 100 µM [1] was 31 to 60% and the inhibition at 100 µM [2] was 45%.

For `CN1CC(C(=O)O)n2c(c(-c3cccc(C(F)(F)F)c3)c(Cc3cccc4ccccc34)c(C(=O)N3CCOCC3)c2=O)S1(=O)=O` (centres unmarked) [Compound 160, 2-methyl-7-(morpholine-4-carbonyl)-8-(naphthalen-1-ylmethyl)-6-oxo-9-(3-(trifluoromethyl)phenyl)-3,4-dihydro-2H,6H-pyrido[1,2-e][1,2,5] thiadiazine-4-carboxylic acid 1,1-dioxide], the inhibition at 100 µM [1] was 11 to 30% and the inhibition at 100 µM [2] was 17%.

`O=C(O)C1CN(C[C@@H](O)CO)S(=O)(=O)c2c(-c3cccc(C(F)(F)F)c3)c(Cc3cccc4ccccc34)cc(=O)n21` (mixture of isomers) [Compound 065b, 2-((R)-2,3-dihydroxypropyl)-8-(naphthalen-1-ylmethyl)-6-oxo-9-(3-(trifluoromethyl)phenyl)-3,4-dihydro-2H,6H-pyrido[1,2-e][1,2,5]thiadiazine-4-carboxylic acid 1,1-dioxide] showed an inhibition at 100 µM [3] of 9% and an inhibition at 100 µM [4] of -10 to 10%.

For `O=C(O)C1CN(Cc2ccccc2)c2c(-c3cccc(C(F)(F)F)c3)c(Cc3cccc4ccccc34)c(Cl)c(=O)n21` (centres unmarked) [Compound 004, 1-benzyl-6-chloro-7-(naphthalen-1-ylmethyl)-5-oxo-8-(3-(trifluoromethyl)phenyl)-1,2,3,5-tetrahydroimidazo[1,2-a]pyridine-3-carboxylic acid], the inhibition at 100 µM [1] was 31 to 60% and the inhibition at 100 µM [2] was 55%.

In the case of `O=C(O)C1CN(Cc2cccc3ccccc23)c2c(-c3cccc(C(F)(F)F)c3)c(Cc3cccc4ccccc34)c(Cl)c(=O)n21` (centres unmarked) [Compound 200, 6-chloro-1,7-bis(naphthalen-1-ylmethyl)-5-oxo-8-(3-(trifluoromethyl)phenyl)-1,2,3,5-tetrahydroimidazo[1,2-a]pyridine-3-carboxylic acid], the inhibition at 100 µM [1] is reported as over 60% and the inhibition at 100 µM [2] is reported as 84%.

For `CCCN1CC(C(=O)O)n2c(c(-c3cccc(C(F)(F)F)c3)c(C(F)(F)c3cccc4ccccc34)cc2=O)S1(=O)=O` (centres unmarked) [Compound 138, 8-(difluoro(naphthalen-1-yl)methyl)-6-oxo-2-propyl-9-(3-(trifluoromethyl)phenyl)-3,4-dihydro-2H,6H-pyrido[1,2-e][1,2,5]thiadiazine-4-carboxylic acid 1,1-dioxide], the inhibition at 100 µM [1] was over 60% and the inhibition at 100 µM [2] was 74%.

In the case of `Cn1c(=O)c2c(ncn2CCCCCCCN2CC(C(=O)O)n3c(c(-c4cccc(C(F)(F)F)c4)c(Cc4cccc5ccccc45)cc3=O)S2(=O)=O)n(C)c1=O` (centres unmarked) [Compound 036], the inhibition at 100 µM [3] is reported as 16% and the inhibition at 100 µM [4] is reported as 11 to 30%.

`O=C(O)C1CN(CC2CCCCC2)c2c(-c3cccc(C(F)(F)F)c3)c(Cc3cccc4ccccc34)c(Cl)c(=O)n21` (centres unmarked) [Compound 180, 6-chloro-1-(cyclohexylmethyl)-7-(naphthalen-1-ylmethyl)-5-oxo-8-(3-(trifluoromethyl)phenyl)-1,2,3,5-tetrahydroimidazo[1,2-a]pyridine-3-carboxylic acid] gave an inhibition at 100 µM [1] of over 60% and an inhibition at 100 µM [2] of 63%.

`O=C(O)C1CN(Cc2ccccc2)c2c(-c3cccc(C(F)(F)F)c3)c(Cc3cccc4ccccc34)c(F)c(=O)n21` (centres unmarked) [Compound 194, 1-benzyl-6-fluoro-7-(naphthalen-1-ylmethyl)-5-oxo-8-(3-(trifluoromethyl)phenyl)-1,2,3,5-tetrahydroimidazo[1,2-a]pyridine-3-carboxylic acid] showed an inhibition at 100 µM [1] of 31 to 60% and an inhibition at 100 µM [2] of 57%.

Compound `O=C(O)C1CN(Cc2ccc(-c3ccccc3)cc2)c2c(-c3cccc(C(F)(F)F)c3)c(Cc3cccc4ccccc34)c(Cl)c(=O)n21` (centres unmarked) [Compound 202, 1-([1,1′-biphenyl]-4-ylmethyl)-6-chloro-7-(naphthalen-1-ylmethyl)-5-oxo-8-(3-(trifluoromethyl)phenyl)-1,2,3,5-tetrahydroimidazo[1,2-a]pyridine-3-carboxylic acid] has an inhibition at 100 µM [1] of 31 to 60% and an inhibition at 100 µM [2] of 54%.

For `O=C(O)C1CN(CCCCCCN2CC(C(=O)O)n3c2c(-c2cccc(C(F)(F)F)c2)c(Cc2cccc4ccccc24)c(Cl)c3=O)c2c(-c3cccc(C(F)(F)F)c3)c(Cc3cccc4ccccc34)c(Cl)c(=O)n21` (centres unmarked) [Compound 193, 1,1′-(hexane-1,6-diyl)bis(6-chloro-7-(naphthalen-1-ylmethyl)-5-oxo-8-(3-(trifluoromethyl)phenyl)-1,2,3,5-tetrahydroimidazo[1,2-a]pyridine-3-carboxylic acid)], the inhibition at 100 µM [1] was over 60% and the inhibition at 100 µM [2] was 69%.

Work on `NC(=O)c1c(Cc2cccc3ccccc23)c(-c2cccc(C(F)(F)F)c2)c2n(c1=O)C(C(=O)O)CN(C1CCCC1)S2(=O)=O` (centres unmarked) [Compound 176, 7-carbamoyl-2-cyclopentyl-8-(naphthalen-1-ylmethyl)-6-oxo-9-(3-(trifluoromethyl)phenyl)-3,4-dihydro-2H,6H-pyrido[1,2-e][1,2,5]thiadiazine-4-carboxylic acid 1,1-dioxide] yielded an inhibition at 100 µM [1] of over 60% and an inhibition at 100 µM [2] of 98%.

`CN(C)C(=O)C1CN(C)S(=O)(=O)c2c(-c3cccc(C(F)(F)F)c3)c(Cc3cccc4ccccc34)cc(=O)n21` (centres unmarked) [Compound 032, N,N-2-trimethyl-8-(naphthalen-1-ylmethyl)-6-oxo-9-(3-(trifluoromethyl)phenyl)-3,4-dihydro-2H,6H-pyrido[1,2-e][1,2,5]thiadiazine-4-carboxamide 1,1-dioxide] was tested, and the inhibition at 100 µM [3] was 8% and the inhibition at 100 µM [4] was -10 to 10%.

With `O=C(O)C1CN(CCC2CCCCC2)c2c(-c3cccc(C(F)(F)F)c3)c(Cc3cccc4ccccc34)c(Cl)c(=O)n21` (centres unmarked) [Compound 207, 6-chloro-1-(2-cyclohexylethyl)-7-(naphthalen-1-ylmethyl)-5-oxo-8-(3-(trifluoromethyl)phenyl)-1,2,3,5-tetrahydroimidazo[1,2-a]pyridine-3-carboxylic acid] the inhibition at 100 µM [1] was over 60% and the inhibition at 100 µM [2] was 71%.
